Data as given in the supplement of paper PMC10307832.

Assays:
Assay in all cases: relative viability (nuclei count vs DMSO), 5 days (fraction); higher = more cells survive
[1] = system: LK-2
Outline: (§1)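 Medians of duplicate plates are given as relative viability. That measure is the nuclei count in treated wells divided by the count in vehicle wells. Counts were taken on 4× images of lung cancer cell lines in 1536-well plates, 5 days after pin-tool dosing the day after seeding with one drug alone or a fixed anchor-drug dose plus five library-drug doses (not always all listed) in √10 steps.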

[2] = system: NCI-H727
Outline: as §1

[3] = system: BEN
Outline: as §1

[4] = system: NCI-H520
Outline: as §1

[5] = system: NCI-H322M
Outline: as §1

[6] = system: HCC-15
Outline: as §1

[7] = system: EKVX
Outline: as §1

[8] = system: ABC-1
Outline: as §1

[9] = system: EMC-BAC-2
Outline: as §1

[10] = system: CAL-12T
Outline: as §1

[11] = system: NCI-H1651
Outline: as §1

[12] = system: NCI-H2023
Outline: as §1

[13] = system: NCI-H460
Outline: as §1

[14] = system: NCI-H1563
Outline: as §1

[15] = system: NCI-H358
Outline: as §1

[16] = system: SW 900
Outline: as §1

[17] = system: 201T
Outline: as §1

[18] = system: PC-3 [JPC-3]
Outline: as §1

[19] = system: COR-L 105
Outline: as §1

[20] = system: NCI-H838
Outline: as §1

[21] = system: LU99A
Outline: as §1

Cc1cn(-c2cc(NC(=O)c3ccc(C)c(Nc4nccc(-c5cccnc5)n4)c3)cc(C(F)(F)F)c2)cn1 [Nilotinib] + COc1cc2c(Oc3ccc(NC(=O)C4(C(=O)Nc5ccc(F)cc5)CC4)cc3F)ccnc2cc1OCCCN1CCOCC1 [Foretinib] (partner 0.25 µM)
relative viability ([1]; first compound 0.001 µM): 1.02 | relative viability ([1]; first compound 0.003162 µM): 1.53 | relative viability ([1]; first compound 0.01 µM): 1.1 | relative viability ([1]; first compound 0.03162 µM): 0.905 | relative viability ([1]; first compound 0.1 µM): 0.711 | relative viability ([2]; first compound 0.003162 µM): 1.16 | relative viability ([2]; first compound 0.01 µM): 1 | relative viability ([2]; first compound 0.03162 µM): 0.797 | relative viability ([2]; first compound 0.1 µM): 0.79 | relative viability ([3]; first compound 0.001 µM): 0.829 | relative viability ([3]; first compound 0.003162 µM): 0.674 | relative viability ([3]; first compound 0.01 µM): 0.494 | relative viability ([3]; first compound 0.03162 µM): 0.647 | relative viability ([3]; first compound 0.1 µM): 0.285 | relative viability ([4]; first compound 0.001 µM): 0.757 | relative viability ([4]; first compound 0.003162 µM): 1.03 | relative viability ([4]; first compound 0.01 µM): 0.91 | relative viability ([4]; first compound 0.03162 µM): 0.684 | relative viability ([4]; first compound 0.1 µM): 0.688 | relative viability ([5]; first compound 0.001 µM): 1.01 | relative viability ([5]; first compound 0.003162 µM): 0.987 | relative viability ([5]; first compound 0.01 µM): 1.05 | relative viability ([5]; first compound 0.03162 µM): 0.956 | relative viability ([5]; first compound 0.1 µM): 1.07 | relative viability ([6]; first compound 0.001 µM): 0.975 | relative viability ([6]; first compound 0.003162 µM): 1.25 | relative viability ([6]; first compound 0.01 µM): 1.09 | relative viability ([6]; first compound 0.03162 µM): 0.858 | relative viability ([6]; first compound 0.1 µM): 0.754 | relative viability ([7]; first compound 0.001 µM): 0.726 | relative viability ([7]; first compound 0.003162 µM): 1 | relative viability ([7]; first compound 0.01 µM): 1.43 | relative viability ([7]; first compound 0.03162 µM): 0.512 | relative viability ([7]; first compound 0.1 µM): 0.187 | relative viability ([8]; first compound 0.001 µM): 0.963 | relative viability ([8]; first compound 0.003162 µM): 1.32 | relative viability ([8]; first compound 0.01 µM): 1.17 | relative viability ([8]; first compound 0.03162 µM): 0.918 | relative viability ([8]; first compound 0.1 µM): 1.32 | relative viability ([9]; first compound 0.001 µM): 0.963 | relative viability ([9]; first compound 0.003162 µM): 1.14 | relative viability ([9]; first compound 0.01 µM): 1.13 | relative viability ([9]; first compound 0.03162 µM): 0.922 | relative viability ([9]; first compound 0.1 µM): 1.02 | relative viability ([10]; first compound 0.001 µM): 1.1 | relative viability ([10]; first compound 0.003162 µM): 1.09 | relative viability ([10]; first compound 0.01 µM): 1.17 | relative viability ([10]; first compound 0.1 µM): 0.87 | relative viability ([11]; first compound 0.001 µM): 0.82 | relative viability ([11]; first compound 0.003162 µM): 0.922 | relative viability ([11]; first compound 0.01 µM): 1.19 | relative viability ([11]; first compound 0.03162 µM): 0.761 | relative viability ([11]; first compound 0.1 µM): 0.79 | relative viability ([12]; first compound 0.001 µM): 0.839 | relative viability ([12]; first compound 0.01 µM): 1.01 | relative viability ([12]; first compound 0.03162 µM): 0.88 | relative viability ([12]; first compound 0.1 µM): 0.875 | relative viability ([13]; first compound 0.001 µM): 0.903 | relative viability ([13]; first compound 0.003162 µM): 1.31 | relative viability ([13]; first compound 0.01 µM): 1.17 | relative viability ([13]; first compound 0.03162 µM): 0.66 | relative viability ([13]; first compound 0.1 µM): 0.941 | relative viability ([14]; first compound 0.001 µM): 0.933 | relative viability ([14]; first compound 0.003162 µM): 0.896 | relative viability ([14]; first compound 0.01 µM): 0.875 | relative viability ([14]; first compound 0.03162 µM): 0.852 | relative viability ([14]; first compound 0.1 µM): 0.891 | relative viability ([15]; first compound 0.001 µM): 0.655 | relative viability ([15]; first compound 0.003162 µM): 0.8 | relative viability ([15]; first compound 0.01 µM): 0.818 | relative viability ([15]; first compound 0.03162 µM): 0.446 | relative viability ([15]; first compound 0.1 µM): 0.346 | relative viability ([16]; first compound 0.001 µM): 0.664 | relative viability ([16]; first compound 0.003162 µM): 0.814 | relative viability ([16]; first compound 0.01 µM): 1.09 | relative viability ([16]; first compound 0.03162 µM): 0.639 | relative viability ([16]; first compound 0.1 µM): 0.902 | relative viability ([17]; first compound 0.001 µM): 0.9 | relative viability ([17]; first compound 0.003162 µM): 1.09 | relative viability ([17]; first compound 0.01 µM): 1.32 | relative viability ([17]; first compound 0.03162 µM): 1.01 | relative viability ([17]; first compound 0.1 µM): 1.14 | relative viability ([18]; first compound 0.001 µM): 1.03 | relative viability ([18]; first compound 0.003162 µM): 1.16 | relative viability ([18]; first compound 0.01 µM): 1.25 | relative viability ([18]; first compound 0.03162 µM): 0.967 | relative viability ([18]; first compound 0.1 µM): 0.863 | relative viability ([19]; first compound 0.001 µM): 1.08 | relative viability ([19]; first compound 0.01 µM): 1.45 | relative viability ([19]; first compound 0.03162 µM): 0.99 | relative viability ([19]; first compound 0.1 µM): 0.99 | relative viability ([20]; first compound 0.001 µM): 1.03 | relative viability ([20]; first compound 0.003162 µM): 1.16 | relative viability ([20]; first compound 0.01 µM): 1.27 | relative viability ([20]; first compound 0.03162 µM): 0.91 | relative viability ([20]; first compound 0.1 µM): 0.949 | relative viability ([21]; first compound 0.001 µM): 0.784 | relative viability ([21]; first compound 0.003162 µM): 0.848 | relative viability ([21]; first compound 0.01 µM): 0.889 | relative viability ([21]; first compound 0.03162 µM): 0.823 | relative viability ([21]; first compound 0.1 µM): 0.509
